Reference: US12030896B2, “PIKfyve inhibitors” (Mayo Foundation for Medical Education and Research, priority 2018, dated 2024)
Where “and” joins values, the source holds several entries; their conditions need not be identical. Equal entries are not always repeated. Where two headings read alike, the source gives them in different places.

How the values were obtained:
cells in culture = assay: Vacuolization activity in cells in culture; assay type: cell-based
Description: As used herein the term “EC50 (μM)” refers to the μM concentration of a compound that is required for 50% activity in a vacuolization assay.
Example 2 is a biotinylated derivative of the compound of Example 1.

[1] = Pharmacokinetic study of Example 3 in mouse (IV, IP); assay type: in vivo, C57 Mouse; settings: for AUC(0-inf): read-out: AUCINF_pred
Protocol: Species: C57 Mouse. Dose Route: IV&IP. Formulation Vehicle: IV&IP: 10% DMSO/30% PEG400/60% Saline. Dose Level: IV (5 mg/kg) and IP (30 mg/kg). Dose Volume: IV (5 mL/kg) and IP (10 mL/kg). Formulation concentrations: IV (1 mg/mL) and IP (3 mg/mL). LLOQ: IV (2 ng/mL) and IP (10 ng/mL).

[2] = 5 mg/kg IV, individual animals 101M-103M
[3] = 30 mg/kg IP, individual animals 201M-203M
[4] = C57, mouse, plasma, ip, 30 mg/kg, 30 mg/kg IP, individual animals 201M-203M
[5] = C57, mouse, plasma, ip, 30 mg/kg, 30 mg/kg IP, mean
[6] = C57, mouse, plasma, iv, 5 mg/kg, 5 mg/kg IV, individual animals 101M-103M
[7] = C57, mouse, plasma, iv, 5 mg/kg, 5 mg/kg IV, mean

With `Cc1ccc(Nc2nc(N/N=C/c3c[nH]c4ccccc34)cc(N3CCOCC3)n2)cc1` [Example 3, (E)-4-(2-((1H-indol-3-yl)methylene)hydrazinyl)-6-morpholino-N-(p-tolyl)pyrimidin-2-amine] the EC50 (cells in culture) was 4 nM, the Plasma concentrations ([1]; 5 mg/kg IV, 0.08 h, individual animals 101M-103M) was 9197.2 ng/mL and 4387.4 ng/mL and 7116.5 ng/mL and the Plasma concentrations ([1]; 5 mg/kg IV, 0.25 h, individual animals 101M-103M) was 7195.4 ng/mL and 2758.6 ng/mL and 3627.2 ng/mL. The Plasma concentrations ([1]; 5 mg/kg IV, 0.50 h, individual animals 101M-103M) was 1641.4 ng/mL and 2830.9 ng/mL, the Plasma concentrations ([1]; 5 mg/kg IV, 1.00 h, individual animals 101M-103M) was 944.6 ng/mL and 1358.7 ng/mL and the Plasma concentrations ([1]; 5 mg/kg IV, 2.00 h, individual animals 101M-103M) was 355.3 ng/mL and 348.7 ng/mL. For the same molecule, the Plasma concentrations ([1]; 5 mg/kg IV, 4.00 h, individual animals 101M-103M) was 71.0 ng/mL and 80.3 ng/mL, the Plasma concentrations ([1]; 5 mg/kg IV, 8.00 h, individual animals 101M-103M) was 35.2 ng/mL and 37.8 ng/mL and the Plasma concentrations ([1]; 5 mg/kg IV, 24.00 h, individual animals 101M-103M, LLOQ 2 ng/mL) was “BLQ”. For the same molecule, the AUCINF_pred [1, 2] was 3424.1 ng·h/mL and 4892.0 ng·h/mL, the AUClast [1, 2] was 3387.7 ng·h/mL and 4862.4 ng·h/mL and the Cl_pred [1, 2] was 15.2 mL/min/kg and 24.3 mL/min/kg and 17 mL/min/kg. The Cmax [1, 2] was 9197.2 ng/mL and 4387.4 ng/mL and 7116.5 ng/mL, the “HL_Lambda_z (T1/2, h)” value [1, 2] was 0.98 h and 0.85 h and the MRTlast [1, 2] was 0.90 h and 0.77 h. For the same molecule, the Vz_pred [1, 2] was 1.12 L/kg and 2.06 L/kg and 1.25 L/kg, the Cl_pred ([1]; 5 mg/kg IV, mean) was 18.8 mL/min/kg and the Vz_pred ([1]; 5 mg/kg IV, mean) was 1.48 L/kg. For the same molecule, the Plasma concentrations ([1]; 30 mg/kg IP, 0.25 h, individual animals 201M-203M) was 1507.7 ng/mL and 971.3 ng/mL, the Plasma concentrations ([1]; 30 mg/kg IP, 0.50 h, individual animals 201M-203M) was 2007.7 ng/mL and 1751.8 ng/mL and the Plasma concentrations ([1]; 30 mg/kg IP, 1.00 h, individual animals 201M-203M) was 3178.8 ng/mL and 2919.1 ng/mL. The Plasma concentrations ([1]; 30 mg/kg IP, 2.00 h, individual animals 201M-203M) was 3158.8 ng/mL and 3638.0 ng/mL, the Plasma concentrations ([1]; 30 mg/kg IP, 4.00 h, individual animals 201M-203M) was 2115.5 ng/mL and 1962.2 ng/mL and the Plasma concentrations ([1]; 30 mg/kg IP, 8.00 h, individual animals 201M-203M) was 1428.1 ng/mL and 1227.0 ng/mL. The Plasma concentrations ([1]; 30 mg/kg IP, 24.00 h, individual animals 201M-203M) was 185.0 ng/mL and 145.1 ng/mL, the AUCINF_pred [1, 3] was 29976.8 ng·h/mL and 27188.2 ng·h/mL and the AUClast [1, 3] was 28429.1 ng·h/mL and 26046.4 ng·h/mL. The Cl_F_pred [1, 3] was 22 mL/min/kg and 16.7 mL/min/kg and 18.3 mL/min/kg, the Cmax [1, 3] was 3178.8 ng/mL and 3638.0 ng/mL and the F % [1, 3] was 79.64% and 103.54% and 94.86%. For the same molecule, the “HL_Lambda_z (T1/2, h)” value [1, 3] was 5.85 h and 5.52 h, the MRTlast [1, 3] was 5.45 h and 5.15 h and the Tmax [1, 3] was 2.00 h. The Vz_F_pred [1, 3] was 10.11 L/kg and 8.44 L/kg and 8.78 L/kg, the Cl_F_pred ([1]; 30 mg/kg IP, mean) was 19 mL/min/kg and the Vz_F_pred ([1]; 30 mg/kg IP, mean) was 9.11 L/kg. The concentration at 0.25 h ([1]; C57, mouse, plasma, intraperitoneal, 30 mg/kg, 30 mg/kg IP, 0.25 h, individual animals 201M-203M, read-out: Plasma concentrations) was 1490 ng/mL, the concentration at 0.25 h ([1]; C57, mouse, plasma, intraperitoneal, 30 mg/kg, 30 mg/kg IP, 0.25 h, mean, read-out: Plasma concentrations) was 1320 ng/mL and the concentration at 0.5 h ([1]; C57, mouse, plasma, intraperitoneal, 30 mg/kg, 30 mg/kg IP, 0.50 h, individual animals 201M-203M, read-out: Plasma concentrations) was 2270 ng/mL. The concentration at 0.5 h ([1]; C57, mouse, plasma, intraperitoneal, 30 mg/kg, 30 mg/kg IP, 0.50 h, mean, read-out: Plasma concentrations) was 2010 ng/mL, the concentration at 1 h ([1]; C57, mouse, plasma, intraperitoneal, 30 mg/kg, 30 mg/kg IP, 1.00 h, individual animals 201M-203M, read-out: Plasma concentrations) was 2990 ng/mL and the concentration at 1 h ([1]; C57, mouse, plasma, intraperitoneal, 30 mg/kg, 30 mg/kg IP, 1.00 h, mean, read-out: Plasma concentrations) was 3030 ng/mL. For the same molecule, the concentration at 2 h ([1]; C57, mouse, plasma, intraperitoneal, 30 mg/kg, 30 mg/kg IP, 2.00 h, individual animals 201M-203M, read-out: Plasma concentrations) was 2830 ng/mL, the concentration at 2 h ([1]; C57, mouse, plasma, intraperitoneal, 30 mg/kg, 30 mg/kg IP, 2.00 h, mean, read-out: Plasma concentrations) was 3210 ng/mL and the concentration at 4 h ([1]; C57, mouse, plasma, intraperitoneal, 30 mg/kg, 30 mg/kg IP, 4.00 h, individual animals 201M-203M, read-out: Plasma concentrations) was 1600 ng/mL. For the same molecule, the concentration at 4 h ([1]; C57, mouse, plasma, intraperitoneal, 30 mg/kg, 30 mg/kg IP, 4.00 h, mean, read-out: Plasma concentrations) was 1890 ng/mL, the concentration at 8 h ([1]; C57, mouse, plasma, intraperitoneal, 30 mg/kg, 30 mg/kg IP, 8.00 h, individual animals 201M-203M, read-out: Plasma concentrations) was 998 ng/mL and the concentration at 8 h ([1]; C57, mouse, plasma, intraperitoneal, 30 mg/kg, 30 mg/kg IP, 8.00 h, mean, read-out: Plasma concentrations) was 1220 ng/mL. For the same molecule, the concentration at 24 h ([1]; C57, mouse, plasma, intraperitoneal, 30 mg/kg, 30 mg/kg IP, 24.00 h, individual animals 201M-203M, read-out: Plasma concentrations) was 107 ng/mL, the concentration at 24 h ([1]; C57, mouse, plasma, intraperitoneal, 30 mg/kg, 30 mg/kg IP, 24.00 h, mean, read-out: Plasma concentrations) was 146 ng/mL and the concentration at 0.08 h ([1]; C57, mouse, plasma, intravenous, 5 mg/kg, 5 mg/kg IV, 0.08 h, mean, read-out: Plasma concentrations) was 6900 ng/mL. It also gave a concentration at 0.25 h ([1]; C57, mouse, plasma, intravenous, 5 mg/kg, 5 mg/kg IV, 0.25 h, mean, read-out: Plasma concentrations) of 4530 ng/mL, a concentration at 0.5 h ([1]; C57, mouse, plasma, intravenous, 5 mg/kg, 5 mg/kg IV, 0.50 h, individual animals 101M-103M, read-out: Plasma concentrations) of 2080 ng/mL and a concentration at 0.5 h ([1]; C57, mouse, plasma, intravenous, 5 mg/kg, 5 mg/kg IV, 0.50 h, mean, read-out: Plasma concentrations) of 2180 ng/mL. For the same molecule, the concentration at 1 h ([1]; C57, mouse, plasma, intravenous, 5 mg/kg, 5 mg/kg IV, 1.00 h, individual animals 101M-103M, read-out: Plasma concentrations) was 1350 ng/mL, the concentration at 1 h ([1]; C57, mouse, plasma, intravenous, 5 mg/kg, 5 mg/kg IV, 1.00 h, mean, read-out: Plasma concentrations) was 1220 ng/mL and the concentration at 2 h ([1]; C57, mouse, plasma, intravenous, 5 mg/kg, 5 mg/kg IV, 2.00 h, individual animals 101M-103M, read-out: Plasma concentrations) was 309 ng/mL. The concentration at 2 h ([1]; C57, mouse, plasma, intravenous, 5 mg/kg, 5 mg/kg IV, 2.00 h, mean, read-out: Plasma concentrations) was 338 ng/mL, the concentration at 4 h ([1]; C57, mouse, plasma, intravenous, 5 mg/kg, 5 mg/kg IV, 4.00 h, individual animals 101M-103M, read-out: Plasma concentrations) was 59 ng/mL and the concentration at 4 h ([1]; C57, mouse, plasma, intravenous, 5 mg/kg, 5 mg/kg IV, 4.00 h, mean, read-out: Plasma concentrations) was 70.1 ng/mL. It also gave a concentration at 8 h ([1]; C57, mouse, plasma, intravenous, 5 mg/kg, 5 mg/kg IV, 8.00 h, individual animals 101M-103M, read-out: Plasma concentrations) of 26.5 ng/mL, a concentration at 8 h ([1]; C57, mouse, plasma, intravenous, 5 mg/kg, 5 mg/kg IV, 8.00 h, mean, read-out: Plasma concentrations) of 33.2 ng/mL and an AUC(0-t) [1, 4] of 21900 ng·h/mL. The MRT last [1, 4] was 4.9 h, the AUC(0-inf) [1, 4] was 22700 ng·h/mL and the Cmax ([1]; C57, mouse, plasma, ip, 30 mg/kg, 30 mg/kg IP, individual animals 201M-203M, read-out: Cmax) was 2990 ng/mL. It also gave a half-life ([1]; C57, mouse, plasma, ip, 30 mg/kg, 30 mg/kg IP, individual animals 201M-203M, read-out: HL_Lambda_z (T1/2, h) (converted)) of 5.29 h, a Tmax ([1]; C57, mouse, plasma, ip, 30 mg/kg, 30 mg/kg IP, individual animals 201M-203M, read-out: Tmax) of 1 h and an AUC(0-t) [1, 5] of 25400 ng·h/mL. It also gave an MRT last [1, 5] of 5.17 h, a bioavailability [1, 5] of 92.7% and an AUC(0-inf) [1, 5] of 26600 ng·h/mL. For the same molecule, the Cmax ([1]; C57, mouse, plasma, ip, 30 mg/kg, 30 mg/kg IP, mean, read-out: Cmax) was 3270 ng/mL, the half-life ([1]; C57, mouse, plasma, ip, 30 mg/kg, 30 mg/kg IP, mean, read-out: HL_Lambda_z (T1/2, h) (converted)) was 5.55 h and the Tmax ([1]; C57, mouse, plasma, ip, 30 mg/kg, 30 mg/kg IP, mean, read-out: Tmax) was 1.33 h. The half-life ([1]; C57, mouse, plasma, ip, 30 mg/kg, IP injection, single 30 mg/kg dose, read-out: half life (converted)) was about 5.5 h, the AUC(0-t) [1, 6] was 5480 ng·h/mL and the MRT last [1, 6] was 0.63 h. It also gave an AUC(0-inf) [1, 6] of 5500 ng·h/mL, a half-life ([1]; C57, mouse, plasma, iv, 5 mg/kg, 5 mg/kg IV, individual animals 101M-103M, read-out: HL_Lambda_z (T1/2, h) (converted)) of 0.85 h and an AUC(0-t) [1, 7] of 4580 ng·h/mL. For the same molecule, the MRT last [1, 7] was 0.76 h, the AUC(0-inf) [1, 7] was 4610 ng·h/mL and the Cmax ([1]; C57, mouse, plasma, iv, 5 mg/kg, 5 mg/kg IV, mean, read-out: Cmax) was 6900 ng/mL. The half-life ([1]; C57, mouse, plasma, iv, 5 mg/kg, 5 mg/kg IV, mean, read-out: HL_Lambda_z (T1/2, h) (converted)) was 0.89 h and the peak concentration ([1]; IP injection, single 30 mg/kg dose) was 3268 ng/mL.
